Source: patent US20230022157A1 (Achillion Pharmaceuticals, Inc., priority 2018, published 2023)

molecular target: T1, Human Factor D (Homo sapiens, UniProt P00746); assay: Human Factor D Assay; type: biochemical; conditions: Human Factor D 80 nM, substrate Z-L-Lys-SBzl, assay of Example 3; read-out: IC50 (Stars)
T1 construct: purified from human serum; purchased Complement Technology, Inc; host or cells: human serum (natural protein, not recombinant)
How it was run: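 Serum-purified human factor D (80 nM final) preincubated 5 min at room temperature with test compound in 50 mM Tris, 1M NaCl, pH 7.5. Z-L-Lys-SBzl substrate and DTNB then added, each at 100 μM final. IC50 from nonlinear regression of reaction rate against compound concentration.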

T1 sequence (P00746 26-253): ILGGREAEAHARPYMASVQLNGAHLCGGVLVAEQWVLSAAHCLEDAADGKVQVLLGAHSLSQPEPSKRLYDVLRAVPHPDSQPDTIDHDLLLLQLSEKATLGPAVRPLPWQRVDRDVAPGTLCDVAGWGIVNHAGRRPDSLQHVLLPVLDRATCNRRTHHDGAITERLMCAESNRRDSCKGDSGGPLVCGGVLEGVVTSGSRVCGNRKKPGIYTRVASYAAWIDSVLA

Which IC50 does the source give for `COC(=O)c1ncc(-c2cc(C)c3c(c2)c(C(C)=O)nn3CC(=O)N2[C@H](C(=O)Nc3nc(Br)ccc3C)C[C@@]3(C)C[C@@H]23)cn1` [Compound 38, methyl 5-(3-acetyl-1-(2-((1R,3S,5R)-3-((6-bromo-3-methylpyridin-2-yl)carbamoyl)-5-methyl-2-azabicyclo[3.1.0]hexan-2-yl)-2-oxoethyl)-7-methyl-1H-indazol-5-yl)pyrimidine-2-carboxylate] here?
The IC50 was under 1000 nM.

With `CC(=O)c1nn(CC(=O)N2[C@H](C(=O)Nc3cccc(Br)n3)C[C@@]3(C)C[C@@H]23)c2c3c(c(-c4cnc(C)nc4)cc12)CCCO3` [Compound 19, (1R,3S,5R)-2-(2-(3-acetyl-5-(2-methylpyrimidin-5-yl)-7,8-dihydropyran[3,2-g]indazol-1(6H)-yl)acetyl)-N-(6-bromopyridin-2-yl)-5-methyl-2-azabicyclo[3.1.0] hexane-3-carboxamide] as the compound, how does the IC50 read?
The IC50 was under 1000 nM.

same assay, conditions: Human Factor D 80 nM, substrate Z-L-Lys-SBzl; Table 2; read-out: IC50 (Stars)

For `CC(=O)c1cn(CC(=O)N2[C@H](C(=O)Nc3cncc(Br)n3)C[C@@]3(C)C[C@@H]23)c2c(C)cc(-c3cnc(C)nc3)cc12` [Compound 155, (1R,3S,5R)-2-(2-(3-acetyl-7-methyl-5-(2-methylpyrimidin-5-yl)-1H-indol-1-yl)acetyl)-N-(6-bromopyrazin-2-yl)-5-methyl-2-azabicyclo[3.1.0]hexane-3-carboxamide], which IC50 is on record?
Its IC50 is under 1000 nM.

How did the IC50 turn out when `CC(=O)c1nn(CC(=O)N2[C@H](C(=O)Nc3nc(Br)ccc3C)C[C@@]3(C)C[C@@H]23)c2c(C)cc(-c3cnc([C@@H](C)O)nc3)cc12` (single isomer, unassigned) [Compound 142] was run?
The IC50 was under 1000 nM.

Which IC50 does the source give for `CC(=O)c1cn(CC(=O)N2[C@H](C(=O)Nc3nc(Br)ccc3C)C[C@@]3(C)C[C@@H]23)c2ccc(-c3cnc4cc(C)nn4c3)cc12` [Compound 202, (1R,3S,5R)-2-(2-(3-acetyl-5-(2-methylpyrazolo[1,5-a]pyrimidin-6-yl)-1H-indol-1-yl)acetyl)-N-(6-bromo-3-methylpyridin-2-yl)-5-methyl-2-azabicyclo[3.1.0]hexane-3-carboxamide] here?
The IC50 was under 1000 nM.

Which IC50 does the source give for `CC(=O)c1nn(CC(=O)N2[C@H](C(=O)N[C@@H](C)C(F)(F)F)C[C@@]3(C)C[C@@H]23)c2c(C)cc(-c3cnc(C)nc3)cc12` [Compound 153, (1R,3S,5R)-2-{2-[3-acetyl-7-methyl-5-(2-methylpyrimidin-5-yl)indazol-1-yl]acetyl}-5-methyl-N-[(2S)-1,1,1-trifluoropropan-2-yl]-2-azabicyclo[3.1.0]hexane-3-carboxamide] here?
The IC50 was under 1000 nM.

How did the IC50 turn out when `CC(=O)c1nn(CC(=O)N2[C@H](C(=O)N[C@H](C)CC3CC3)C[C@@]3(C)C[C@@H]23)c2c(C)cc(-c3cnc(C)nc3)cc12` [Compound 133, (1R,3S,5R)-2-{2-[3-acetyl-7-methyl-5-(2-methylpyrimidin-5-yl)indazol-1-yl]acetyl}-N-[(2R)-1-cyclopropylpropan-2-yl]-5-methyl-2-azabicyclo[3.1.0]hexane-3-carboxamide] was run?
The IC50 was under 1000 nM.

How did the IC50 turn out when `CC(=O)c1cn(CC(=O)N2[C@H](C(=O)Nc3nc(C(F)(F)F)ccc3C)C[C@@]3(C)C[C@@H]23)c2c(C)cc(-c3cnc(CO)nc3)cc12` [Compound 161, (1R,3S,5R)-2-(2-(3-acetyl-5-(2-(hydroxymethyl)pyrimidin-5-yl)-7-methyl-1H-indol-1-yl)acetyl)-5-methyl-N-(3-methyl-6-(trifluoromethyl)pyridin-2-yl)-2-azabicyclo[3.1.0]hexane-3-carboxamide] was run?
Its IC50 is under 1000 nM.

`CC(=O)c1cn(CC(=O)N2[C@H](C(=O)Nc3nc(Br)ccc3C)C[C@@]3(C)C[C@@H]23)c2c(C)cc(-c3cnc(CO)nc3)cc12` [Compound 62, (1R,3S,5R)-2-(2-(3-acetyl-5-(2-(hydroxymethyl)pyrimidin-5-yl)-7-methyl-11H-indol-1-yl)acetyl)-N-(6-bromo-3-methylpyridin-2-yl)-5-methyl-2-azabicyclo[3.1.0]hexane-3-carboxamide] was tested. Which IC50 did it give?
The IC50 was under 1000 nM.

`CC(=O)c1nn(CC(=O)N2[C@H](C(=O)Nc3cncc(Br)n3)C[C@@]3(C)C[C@@H]23)c2c(C)cc(-c3ccc(CO)nc3)cc12` [Compound 119, (1R,3S,5R)-2-(2-(3-acetyl-5-(6-(hydroxymethyl)pyridin-3-yl)-7-methyl-1H-indazol-1-yl)acetyl)-N-(6-bromopyrazin-2-yl)-5-methyl-2-azabicyclo[3.1.0]hexane-3-carboxamide] was tested. Which IC50 did it give?
Its IC50 is under 1000 nM.

`CC(=O)c1nn(CC(=O)N2[C@H](C(=O)Nc3nc(Br)ccc3C)C[C@@]3(C)C[C@@H]23)c2c(C)cc(-c3cnc(C(C)O)cn3)cc12` (stereo partly drawn) [Compound 176, (1R,3S,5R)-2-(2-(3-acetyl-5-(5-(1-hydroxyethyl)pyrazin-2-yl)-7-methyl-1H-indazol-1-yl)acetyl)-N-(6-bromo-3-methylpyridin-2-yl)-5-methyl-2-azabicyclo[3.1.0]hexane-3-carboxamide] was tested. Which IC50 did it give?
The IC50 was under 1000 nM.

For `CC(=O)c1nn(CC(=O)N2C[C@H]3C[C@H]3[C@H]2C(=O)Nc2cncc(Br)n2)c2c(C)cc(-c3cnc(CO)nc3)cc12` [Compound 74, (1R,2S,5S)-3-(2-(3-acetyl-5-(2-(hydroxymethyl)pyrimidin-5-yl)-7-methyl-11H-indazol-1-yl)acetyl)-N-(6-bromopyrazin-2-yl)-3-azabicyclo[3.1.0]hexane-2-carboxamide], which IC50 is on record?
The IC50 was under 1000 nM.

`CCCC(C)(C)CNC(=O)[C@@H]1C[C@@]2(C)C[C@H]2N1C(=O)Cn1nc(C(C)=O)c2cc(-c3cnc(C)nc3)cc(C)c21` [Compound 116, (1R,3S,5R)-2-{2-[3-acetyl-7-methyl-5-(2-methylpyrimidin-5-yl)indazol-1-yl]acetyl}-N-(2,2-dimethylpentyl)-5-methyl-2-azabicyclo[3.1.0]hexane-3-carboxamide] was tested. Which IC50 did it give?
Its IC50 is under 1000 nM.

How did the IC50 turn out when `CC(=O)c1nn(CC(=O)N2[C@H](C(=O)Nc3nc(C(F)(F)F)ccc3C)C[C@@]3(C)C[C@@H]23)c2c(C)cc(-c3cnc4cc(CO)nn4c3)cc12` [Compound 227, (1R,3S,5R)-2-(2-(3-acetyl-5-(2-(hydroxymethyl)pyrazolo[1,5-a]pyrimidin-6-yl)-7-methyl-1H-indazol-1-yl)acetyl)-5-methyl-N-(3-methyl-6-(trifluoromethyl)pyridin-2-yl)-2-azabicyclo[3.1.0]hexane-3-carboxamide] was run?
Its IC50 is under 1000 nM.

`CC(=O)c1nn(CC(=O)N2[C@H](C(=O)NC(C)Cc3cccs3)C[C@@]3(C)C[C@@H]23)c2c(C)cc(-c3cnc(C)nc3)cc12` (stereo partly drawn) [Compound 182, (1R,3S,5R)-2-{2-[3-acetyl-7-methyl-5-(2-methylpyrimidin-5-yl)indazol-1-yl]acetyl}-5-methyl-N-[1-(thiophen-2-yl)propan-2-yl]-2-azabicyclo[3.1.0]hexane-3-carboxamide] was tested. Which IC50 did it give?
The IC50 was under 1000 nM.

With `CC(=O)c1cn(CC(=O)N2[C@H](C(=O)Nc3nc(C(F)(F)F)ccc3C)C[C@@]3(C)C[C@@H]23)c2ccc(-c3cnc4cc(C)nn4c3)cc12` [Compound 203, (1R,3S,5R)-2-(2-(3-acetyl-5-(2-methylpyrazolo[1,5-a]pyrimidin-6-yl)-1H-indol-1-yl)acetyl)-5-methyl-N-(3-methyl-6-(trifluoromethyl)pyridin-2-yl)-2-azabicyclo[3.1.0]hexane-3-carboxamide] as the compound, how does the IC50 read?
The IC50 was under 1000 nM.

For `Cc1ncc(-c2cc3c(C(N)=O)nn(CC(=O)N4[C@H](C(=O)Nc5cc(F)cc(Br)n5)C[C@@]5(C)C[C@@H]45)c3c(C)n2)cn1` [Compound 140, 1-(2-((1R,3S,5R)-3-((6-bromo-4-fluoropyridin-2-yl)carbamoyl)-5-methyl-2-azabicyclo[3.1.0]hexan-2-yl)-2-oxoethyl)-7-methyl-5-(2-methylpyrimidin-5-yl)-1H-pyrazolo[3,4-c]pyridine-3-carboxamide], which IC50 is on record?
The IC50 was under 1000 nM.

`CC(=O)c1nn(CC(=O)N2[C@H](C(=O)Nc3nc(Br)ccc3C)C[C@@]3(C)C[C@@H]23)c2ccc(-c3cncc(S(C)(=O)=O)c3)cc12` [Compound 121, (1R,3S,5R)-2-(2-(3-Acetyl-5-(5-(methylsulfonyl)pyridin-3-yl)-1H-indazol-1-yl)acetyl)-N-(6-bromo-3-methylpyridin-2-yl)-5-methyl-2-azabicyclo[3.1.0]hexane-3-carboxamide] was tested. Which IC50 did it give?
The IC50 was under 1000 nM.

Which IC50 does the source give for `CC(=O)c1nn(CC(=O)N2[C@H](C(=O)NCCC3(C)OCCO3)C[C@@]3(C)C[C@@H]23)c2c(C)cc(-c3cnc(C)nc3)cc12` [Compound 145, (1R,3S,5R)-2-{2-[3-acetyl-7-methyl-5-(2-methylpyrimidin-5-yl)indazol-1-yl]acetyl}-5-methyl-N-[2-(2-methyl-1,3-dioxolan-2-yl)ethyl]-2-azabicyclo[3.1.0]hexane-3-carboxamide] here?
Its IC50 is under 1000 nM.

With `CC(=O)c1nn(CC(=O)N2[C@H](C(=O)Nc3nc(C(F)(F)F)ccc3C)C[C@@]3(C)C[C@@H]23)c2c(C)cc(-c3cnc(C(=O)O)nc3)cc12` [Compound 51, 5-(3-acetyl-7-methyl-1-(2-((1R,3S,5R)-5-methyl-3-((3-methyl-6-(trifluoromethyl)pyridin-2-yl)carbamoyl)-2-azabicyclo[3.1.0]hexan-2-yl)-2-oxoethyl)-1H-indazol-5-yl)pyrimidine-2-carboxylic acid] as the compound, how does the IC50 read?
Its IC50 is under 1000 nM.

With `CC(=O)c1nn(CC(=O)N2[C@H](C(=O)Nc3nc(Br)ccc3C)C[C@@]3(C)C[C@@H]23)c2ccc(-c3cncc(C4(C(=O)O)CC4)c3)cc12` [Compound 98, 1-(5-(3-acetyl-1-(2-((1R,3S,5R)-3-((6-bromo-3-methylpyridin-2-yl)carbamoyl)-5-methyl-2-azabicyclo[3.1.0]hexan-2-yl)-2-oxoethyl)-1H-indazol-5-yl)pyridin-3-yl)cyclopropane-1-carboxylic acid] as the compound, how does the IC50 read?
The IC50 was under 1000 nM.

With `CC(=O)c1cn(CC(=O)N2[C@H](C(=O)Nc3nc(Br)c(F)cc3C)C[C@@]3(C)C[C@@H]23)c2c(C)cc(-c3cnc(CO)nc3)cc12` [Compound 78, (1R,3S,5R)-2-(2-(3-acetyl-5-(2-(hydroxymethyl)pyrimidin-5-yl)-7-methyl-1H-indol-1-yl)acetyl)-N-(6-bromo-5-fluoro-3-methylpyridin-2-yl)-5-methyl-2-azabicyclo[3.1.0]hexane-3-carboxamide] as the compound, how does the IC50 read?
The IC50 was under 1000 nM.
